Assay: Evaluation of ability to produce butyrate from indigestible saccharides (Example 3)
Excerpt: Galactooligosaccharide (GOS), maltitol, D-mannitol, lactitol, isomalt, isomaltulose, L-sorbose and D-sorbitol were used as indigestible saccharides. These indigestible saccharides used, except for GOS, were reagent grade. GOS used was commercially available Oligomate 55N (Yakult Pharmaceutical Industry Co., Ltd.) from which monosaccharide and lactose fractions (fractions digestible and absorbable by the upper gastrointestinal tract) had been removed using an activated carbon column. Specifically, a saccharide solution diluted with purified water was added to a column packed with activated carbon (manufactured by Wako Pure Chemical Industries, Ltd.) swollen in purified water, and the column was washed with a 2% ethanol solution, followed by the elution of an indigestible fraction with a 50% ethanol solution. The eluate was dried under reduced pressure, and the obtained GOS saccharide solution was used.
A. hadrus YIT 10092^T (DSM 3119^T), which is a type strain of A. hadrus (a typical human intestinal butyrate-producing bacterium), and two isolates were used.
Each of these bacterial strains was anaerobically cultured at 37° C. for 24 hours in a PYA medium containing 33 mM sodium acetate supplemented with 0.5% D-glucose (PYGA medium). The culture solution was inoculated at 1% to a PYA medium containing 0.5 (w/v) % of each indigestible saccharide (test medium), followed by anaerobic culture at 37° C. for 24 hours. After the completion of the culture, the organic acid concentration in the culture solution was analyzed by ion-exclusion HPLC. The analysis conditions were the same as those described above in Example 2. After the quantification of the organic acid concentration, the amount of butyrate produced from each indigestible saccharide and the ratio of butyrate to total short-chain fatty acids were calculated according to the following expressions. (Amount of butyrate produced)=(Amount of butyrate in the test medium after culture)−(Amount of butyrate in a PYA medium without each indigestible saccharide after culture) (Ratio of butyrate)=(Amount of butyrate in the test medium after culture)/((Amount of acetate+Amount of propionate+Amount of butyrate) in the test medium after culture)×100 (Expression 3)

A. hadrus (Eubacterium hadrum) YIT 12355 (NITE BP-01832)
ability to utilize indigestible saccharides (PYA medium with 0.5 (w/v) % of each indigestible saccharide, versus type strain, FIGS. 3 and 4): more than the type strain YIT 10092^T
Amount of butyrate produced (from indigestible saccharides, versus type strain, FIG. 3): larger
ratio of butyrate to total short-chain fatty acids (versus type strain YIT 10092^T, FIG. 4): higher than that of the type strain YIT 10092^T

From patent US10293004B2, “Butyrate-producing bacterium and use thereof” (KABUSHIKI KAISHA YAKULT HONSHA, priority 2014, dated 2019)
